Reference: ChEMBL document CHEMBL1201862, “PubChem BioAssay data set” (2004)
The source made the active and inactive calls.

Experiments:
[1] = luciferase reporter signal suppression in cells – H4 neuroglioma cells, luminescence, dose response (AID 1990); type: functional, cell-based
[2] = Luminescence Cell-Based Dose Response HTS to Identify Inhibitors of 5'UTR Stem-Loop Driven Prion Protein mRNA Translation in H4 Neuroglioblastoma Cells. [Related pubchem assays: 1827 (Project Summary), 1813 (Primary HTS)]; type: functional
[3] = alpha-synuclein stem-loop luciferase translation blockers – H4 neuroglioma cells, luminescence, confirmation (AID 1988); type: functional, cell-based
[4] = mitochondrial function rescue without frataxin homolog – Friedreich's ataxia, plus single-dose screen, dose response (AID 1465); type: functional;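 further: yeast depleted of Yfh1p frataxin homolog grown on glycerol needing respiration; WST-1 tetrazolium dye reduction as measure of cellular dehydrogenase metabolic activity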
[5] = target: T1, Microphthalmia-associated transcription factor (Homo sapiens, UniProt O75030); assay: reducers of TRPM1 reporter luminescence, concentration series – cell-based, SK-MEL-5, cherry-picked, set 3, MITF inhibitor project, dose response (AID 493073); type: functional;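 further: SK-MEL-5 melanoma cells with luciferase driven by the MITF target TRPM1 promoter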
T1 sequence (O75030 whole entry): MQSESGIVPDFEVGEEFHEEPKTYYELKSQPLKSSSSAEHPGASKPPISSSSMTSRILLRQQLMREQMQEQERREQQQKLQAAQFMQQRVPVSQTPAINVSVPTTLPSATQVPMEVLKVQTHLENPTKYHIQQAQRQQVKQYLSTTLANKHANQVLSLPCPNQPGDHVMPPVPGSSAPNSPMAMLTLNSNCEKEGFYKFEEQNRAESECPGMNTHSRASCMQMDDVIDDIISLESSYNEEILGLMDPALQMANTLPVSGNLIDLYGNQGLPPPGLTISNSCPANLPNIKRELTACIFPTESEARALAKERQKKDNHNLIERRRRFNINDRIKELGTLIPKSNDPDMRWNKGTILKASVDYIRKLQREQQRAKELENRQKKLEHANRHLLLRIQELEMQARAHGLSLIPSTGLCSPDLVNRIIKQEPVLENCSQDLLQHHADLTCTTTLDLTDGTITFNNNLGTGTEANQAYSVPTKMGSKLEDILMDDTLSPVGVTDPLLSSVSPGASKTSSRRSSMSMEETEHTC

[6] = target: 26S proteasome non-ATPase regulatory subunit 14 (Homo sapiens, UniProt O00487); assay: inhibition of proteasome subunit RPN11 – biochemical, fluorescence polarization, uHTS hits, confirmation (AID 602368); type: functional
Sequence of 26S proteasome non-ATPase regulatory subunit 14 (O00487 whole entry): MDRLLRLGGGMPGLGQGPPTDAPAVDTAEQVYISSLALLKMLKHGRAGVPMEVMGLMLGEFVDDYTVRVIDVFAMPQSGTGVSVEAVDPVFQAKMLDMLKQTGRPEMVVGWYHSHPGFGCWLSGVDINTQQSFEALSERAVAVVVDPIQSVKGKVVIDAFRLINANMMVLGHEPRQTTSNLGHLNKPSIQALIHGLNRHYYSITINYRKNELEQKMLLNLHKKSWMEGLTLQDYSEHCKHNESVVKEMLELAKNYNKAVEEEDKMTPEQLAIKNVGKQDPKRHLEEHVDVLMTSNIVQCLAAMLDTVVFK

[7] = target: 72 kDa type IV collagenase (Homo sapiens, UniProt P08253); assay: Dose Response validation of uHTS RPN11 inhibitor hits using a MMP-2 Fluorescence assay.; type: functional
Sequence of 72 kDa type IV collagenase (P08253 whole entry): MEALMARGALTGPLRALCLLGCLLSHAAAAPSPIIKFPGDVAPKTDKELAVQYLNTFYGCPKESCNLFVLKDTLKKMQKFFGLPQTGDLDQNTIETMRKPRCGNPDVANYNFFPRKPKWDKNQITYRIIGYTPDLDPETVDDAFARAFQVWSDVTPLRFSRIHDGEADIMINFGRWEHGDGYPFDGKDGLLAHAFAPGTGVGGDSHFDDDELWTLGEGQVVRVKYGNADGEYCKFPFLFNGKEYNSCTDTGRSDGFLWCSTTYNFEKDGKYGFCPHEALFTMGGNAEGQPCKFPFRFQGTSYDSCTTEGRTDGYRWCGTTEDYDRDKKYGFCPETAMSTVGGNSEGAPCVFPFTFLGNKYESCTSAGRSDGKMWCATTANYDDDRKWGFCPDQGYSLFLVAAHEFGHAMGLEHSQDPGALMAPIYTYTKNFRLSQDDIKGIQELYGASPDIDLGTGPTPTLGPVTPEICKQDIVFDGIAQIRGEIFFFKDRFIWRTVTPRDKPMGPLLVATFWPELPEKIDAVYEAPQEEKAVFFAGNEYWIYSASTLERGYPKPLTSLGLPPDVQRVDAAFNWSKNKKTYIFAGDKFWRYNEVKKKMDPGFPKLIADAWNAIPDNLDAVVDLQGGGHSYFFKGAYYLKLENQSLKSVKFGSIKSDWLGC

Prothrombin = Prothrombin (Bos taurus, UniProt P00735); assay: thrombin protease inhibitors – biochemical, fluorescence polarization, uHTS hits, dose response (AID 602369); type: functional
[8] = target: T2, Sphingosine 1-phosphate receptor 4 (Homo sapiens, UniProt O95977); assay: Fluorescence dose response cell-based high throughput screening assay for antagonists of the Sphingosine 1-Phosphate Receptor 4 (S1P4). [Related pubchem assays: 1524 (Confirmation in triplicates.), 1510 (Primary screen.)]; type: functional
T2 sequence (O95977 whole entry): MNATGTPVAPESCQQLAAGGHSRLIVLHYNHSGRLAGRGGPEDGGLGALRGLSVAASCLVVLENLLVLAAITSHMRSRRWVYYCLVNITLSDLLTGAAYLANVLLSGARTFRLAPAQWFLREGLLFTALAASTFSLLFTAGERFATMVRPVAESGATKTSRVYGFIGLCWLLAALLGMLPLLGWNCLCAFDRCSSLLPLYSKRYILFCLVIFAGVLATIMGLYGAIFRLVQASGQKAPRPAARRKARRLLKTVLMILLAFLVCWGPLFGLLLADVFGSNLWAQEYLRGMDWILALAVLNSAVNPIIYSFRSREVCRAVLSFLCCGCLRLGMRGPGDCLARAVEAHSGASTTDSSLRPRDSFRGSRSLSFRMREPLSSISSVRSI

[9] = target: Sphingosine 1-phosphate receptor 1 (Homo sapiens, UniProt P21453); type: functional;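 further: Tango beta-arrestin reporter U2OS cells stimulated with S1P near its EC80; inhibitor potency meaning antagonism of receptor activation by the natural agonist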
Sequence of Sphingosine 1-phosphate receptor 1 (P21453 whole entry): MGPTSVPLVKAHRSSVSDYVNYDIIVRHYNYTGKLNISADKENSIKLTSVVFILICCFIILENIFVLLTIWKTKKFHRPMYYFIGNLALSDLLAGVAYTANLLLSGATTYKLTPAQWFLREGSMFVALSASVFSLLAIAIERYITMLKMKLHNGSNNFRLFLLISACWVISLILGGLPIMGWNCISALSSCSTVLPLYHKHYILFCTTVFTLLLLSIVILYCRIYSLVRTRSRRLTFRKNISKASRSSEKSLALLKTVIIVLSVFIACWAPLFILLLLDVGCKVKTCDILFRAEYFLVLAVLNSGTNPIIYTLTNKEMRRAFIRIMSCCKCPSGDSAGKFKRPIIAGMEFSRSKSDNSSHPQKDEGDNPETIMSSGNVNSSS

[10] = target: T3, Replicative DNA helicase DnaB (Mycobacterium tuberculosis, UniProt P9WMR3); assay: DnaB intein splicing inhibitors, dose response, biochemical, cell-free fluorescence (AID 449749); type: functional
T3 sequence (P9WMR3 whole entry): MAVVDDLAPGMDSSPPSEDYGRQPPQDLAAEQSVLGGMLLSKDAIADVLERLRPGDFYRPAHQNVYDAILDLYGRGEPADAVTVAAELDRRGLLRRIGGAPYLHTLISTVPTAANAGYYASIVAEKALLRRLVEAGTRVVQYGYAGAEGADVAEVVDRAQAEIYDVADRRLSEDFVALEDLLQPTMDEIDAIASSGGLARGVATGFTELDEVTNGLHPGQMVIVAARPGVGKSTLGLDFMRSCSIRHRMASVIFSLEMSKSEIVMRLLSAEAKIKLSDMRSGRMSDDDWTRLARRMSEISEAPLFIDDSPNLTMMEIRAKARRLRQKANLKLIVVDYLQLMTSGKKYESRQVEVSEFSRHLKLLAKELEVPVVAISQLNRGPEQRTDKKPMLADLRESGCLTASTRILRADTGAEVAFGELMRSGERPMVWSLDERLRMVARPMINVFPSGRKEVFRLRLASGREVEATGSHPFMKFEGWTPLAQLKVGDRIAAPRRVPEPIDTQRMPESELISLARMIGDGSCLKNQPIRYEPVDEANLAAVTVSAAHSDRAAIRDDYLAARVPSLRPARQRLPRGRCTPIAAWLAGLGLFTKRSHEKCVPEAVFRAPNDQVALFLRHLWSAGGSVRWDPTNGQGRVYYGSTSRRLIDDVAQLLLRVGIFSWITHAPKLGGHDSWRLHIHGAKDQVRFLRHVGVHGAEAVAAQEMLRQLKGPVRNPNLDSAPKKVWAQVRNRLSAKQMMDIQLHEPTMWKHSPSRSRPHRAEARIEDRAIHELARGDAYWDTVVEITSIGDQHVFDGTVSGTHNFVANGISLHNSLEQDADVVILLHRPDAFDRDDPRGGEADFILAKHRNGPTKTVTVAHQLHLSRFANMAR

Protein RecA = target: T4, Protein RecA (Mycobacterium tuberculosis, UniProt P9WHJ3); assay: Fluorescence Cell-Free Homogeneous Dose Retest to Identify Inhibitors of RecA-Intein Splicing Activity. [Related pubchem assays (depositor defined):AID2097, AID2223, AID489010, AID492950]; type: functional
T4 sequence (P9WHJ3 whole entry): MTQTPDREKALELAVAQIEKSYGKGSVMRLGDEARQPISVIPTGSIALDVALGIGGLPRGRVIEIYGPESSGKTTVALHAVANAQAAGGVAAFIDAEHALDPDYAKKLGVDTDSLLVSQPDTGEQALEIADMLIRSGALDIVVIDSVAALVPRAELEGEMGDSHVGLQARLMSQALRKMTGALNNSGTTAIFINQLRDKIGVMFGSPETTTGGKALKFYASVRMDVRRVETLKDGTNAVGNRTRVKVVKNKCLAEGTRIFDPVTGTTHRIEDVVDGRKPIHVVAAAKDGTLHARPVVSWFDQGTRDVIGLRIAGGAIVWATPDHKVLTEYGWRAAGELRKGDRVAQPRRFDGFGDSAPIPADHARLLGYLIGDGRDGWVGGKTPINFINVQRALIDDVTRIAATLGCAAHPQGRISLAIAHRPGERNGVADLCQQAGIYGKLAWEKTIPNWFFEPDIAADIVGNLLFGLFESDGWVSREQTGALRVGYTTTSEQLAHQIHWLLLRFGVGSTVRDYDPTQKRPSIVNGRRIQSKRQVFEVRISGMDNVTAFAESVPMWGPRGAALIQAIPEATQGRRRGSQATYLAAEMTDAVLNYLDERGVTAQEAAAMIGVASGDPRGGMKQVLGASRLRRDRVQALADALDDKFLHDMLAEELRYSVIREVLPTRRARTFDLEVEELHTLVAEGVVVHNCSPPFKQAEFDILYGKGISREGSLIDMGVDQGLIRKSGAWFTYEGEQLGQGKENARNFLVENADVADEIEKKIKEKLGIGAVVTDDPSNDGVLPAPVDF

[11] = target: Beta-2 adrenergic receptor (Homo sapiens, UniProt P07550); assay: ADRB2 activation measured by internalization – cell-based, FAP fluorogen, flow cytometry, cherry pick 1, dose response (AID 588763); type: functional
Sequence of Beta-2 adrenergic receptor (P07550 whole entry): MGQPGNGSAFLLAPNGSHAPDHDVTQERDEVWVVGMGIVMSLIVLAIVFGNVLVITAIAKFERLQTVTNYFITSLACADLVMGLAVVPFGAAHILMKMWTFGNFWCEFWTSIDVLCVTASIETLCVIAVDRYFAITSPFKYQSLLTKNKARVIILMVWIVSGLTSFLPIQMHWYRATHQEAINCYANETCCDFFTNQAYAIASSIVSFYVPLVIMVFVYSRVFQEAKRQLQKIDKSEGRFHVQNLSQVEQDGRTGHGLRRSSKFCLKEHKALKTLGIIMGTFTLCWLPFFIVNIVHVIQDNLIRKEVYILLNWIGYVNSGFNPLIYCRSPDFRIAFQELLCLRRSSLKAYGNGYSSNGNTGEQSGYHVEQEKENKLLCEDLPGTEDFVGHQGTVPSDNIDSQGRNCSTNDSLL

[12] = reduction of Shn3 3'UTR-driven luciferase in osteoblasts – cell-based, Clone20 osteoblasts, firefly luciferase, cherry-picked, dose response (AID 624132); type: functional;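 further: firefly luciferase luminescence from reporter carrying the Shn3 3'UTR in osteoblasts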
[13] = non-specific 3'UTR reporter inhibition in Clone20-Shn3RL – cell-based, Renilla luciferase, cherry-picked, counter-screen for Shn3 inhibitor project, dose response (AID 624133); type: functional
[14] = NIH-3T3 fibroblast cytotoxicity, dose response, cytotoxicity control, cell-based, fluorescence, Alamar Blue, secondary assay (AID 2327); type: functional;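 further: NIH-3T3 mouse fibroblasts cultured with fluconazole at 8 µg/mL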
HeLa = assay: Cytotoxicity counterscreen assay for transcriptional activators of heat shock protein 70 (Hsp70). [Related pubchem assays: 1203, 1252 ]; type: functional; settings: Homo sapiens
[15] = fluconazole-exposed Candida albicans growth modulators – fluorescence, retest, confirmation (AID 2467); type: functional, cell-based
[16] = HPDE-C7 pancreatic duct cell viability loss – fluorescence, HTS (AID 430); type: functional, cell-based; settings: Homo sapiens
[17] = viability loss of HPDE-C7K cells – cell-based, fluorescence, HTS, primary screen (AID 431); type: functional; settings: Homo sapiens
[18] = target: Serine/threonine-protein phosphatase (Candida dubliniensis (strain CD36 / CBS 7987 / NCPF 3949 / NRRLY-17841) (Yeast), UniProt B9W6M3); assay: blockers of CaCl2-induced CDRE-lacZ signaling – S. cerevisiae, luminescence, secondary, dose response (AID 2388); type: functional, cell-based;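 further: yeast reporter cells carrying a calcineurin-responsive lacZ construct stimulated with calcium chloride; luminescent beta-galactosidase reporter signal in whole cells rather than isolated phosphatase activity; potency for inhibition where a drop in reporter signal means calcineurin blockade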
Sequence of Serine/threonine-protein phosphatase (B9W6M3 whole entry): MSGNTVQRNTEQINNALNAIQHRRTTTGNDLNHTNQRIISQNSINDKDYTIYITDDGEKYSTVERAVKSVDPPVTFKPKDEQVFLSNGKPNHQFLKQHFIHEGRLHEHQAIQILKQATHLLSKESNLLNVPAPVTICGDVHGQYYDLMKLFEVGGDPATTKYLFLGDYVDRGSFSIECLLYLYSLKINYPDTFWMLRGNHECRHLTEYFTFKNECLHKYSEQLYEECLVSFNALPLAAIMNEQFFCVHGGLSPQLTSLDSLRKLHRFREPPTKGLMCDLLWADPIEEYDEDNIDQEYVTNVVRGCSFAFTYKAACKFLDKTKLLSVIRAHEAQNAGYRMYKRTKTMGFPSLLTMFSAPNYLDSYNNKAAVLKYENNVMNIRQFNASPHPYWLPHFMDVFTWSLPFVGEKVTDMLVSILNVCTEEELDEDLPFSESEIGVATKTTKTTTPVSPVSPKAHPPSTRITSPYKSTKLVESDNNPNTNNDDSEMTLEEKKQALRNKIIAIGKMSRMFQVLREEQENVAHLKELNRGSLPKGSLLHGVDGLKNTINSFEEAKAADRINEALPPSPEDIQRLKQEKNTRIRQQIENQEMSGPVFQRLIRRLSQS

[19] = target: Induced myeloid leukemia cell differentiation protein Mcl-1 (Homo sapiens, UniProt Q07820); type: functional
Sequence of Induced myeloid leukemia cell differentiation protein Mcl-1 (Q07820 whole entry): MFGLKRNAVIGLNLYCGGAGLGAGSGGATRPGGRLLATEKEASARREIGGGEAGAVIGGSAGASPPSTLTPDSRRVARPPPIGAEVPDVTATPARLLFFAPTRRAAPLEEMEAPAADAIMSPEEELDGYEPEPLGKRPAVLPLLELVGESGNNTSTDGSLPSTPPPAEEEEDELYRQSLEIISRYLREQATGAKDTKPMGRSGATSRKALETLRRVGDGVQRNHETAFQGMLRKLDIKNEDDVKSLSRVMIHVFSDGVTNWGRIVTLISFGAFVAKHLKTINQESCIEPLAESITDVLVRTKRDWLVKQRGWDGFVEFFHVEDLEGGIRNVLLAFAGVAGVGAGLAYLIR

[20] = target: T5, Heat shock factor protein 1 (Mus musculus, UniProt P38532); assay: enhancement of HSF1-driven luciferase signal – cell-based, NIH3T3, luminescence, dose retest, confirmation (AID 435004); type: functional;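 further: stress induced by proteasome inhibitor MG132 added 30 min after compound; luciferase reporter driven by HSF1 response element in NIH3T3 cells; actives raise luminescence as potentiators of the MG132 stress response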
T5 sequence (P38532 whole entry): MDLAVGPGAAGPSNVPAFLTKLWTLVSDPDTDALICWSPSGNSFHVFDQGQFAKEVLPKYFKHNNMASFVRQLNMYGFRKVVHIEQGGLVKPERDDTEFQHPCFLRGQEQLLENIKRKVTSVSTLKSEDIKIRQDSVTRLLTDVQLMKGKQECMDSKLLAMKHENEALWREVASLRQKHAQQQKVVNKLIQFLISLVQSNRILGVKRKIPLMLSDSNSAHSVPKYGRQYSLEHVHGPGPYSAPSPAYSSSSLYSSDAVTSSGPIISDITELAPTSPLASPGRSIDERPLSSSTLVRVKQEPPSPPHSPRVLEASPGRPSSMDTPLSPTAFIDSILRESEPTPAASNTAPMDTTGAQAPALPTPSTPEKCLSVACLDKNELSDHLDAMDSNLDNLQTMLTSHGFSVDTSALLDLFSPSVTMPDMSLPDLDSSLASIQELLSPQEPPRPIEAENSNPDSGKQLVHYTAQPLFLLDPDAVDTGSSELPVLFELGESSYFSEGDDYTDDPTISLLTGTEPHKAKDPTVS

[21] = target: ATP-dependent molecular chaperone HSP82 (Candida albicans (strain WO-1) (Yeast), UniProt C4YTQ8); assay: steroid-induced GRE reporter decrease in yeast – S. cerevisiae, luminescence, Hsp90 inhibitor project, dose response (AID 2400); type: functional, cell-based;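 further: beta-galactosidase luminescence from glucocorticoid response element reporter as proxy for Hsp90 function; inhibitor potency where signal loss means Hsp90 inhibition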
Sequence of ATP-dependent molecular chaperone HSP82 (C4YTQ8 whole entry, the tested form may be a part): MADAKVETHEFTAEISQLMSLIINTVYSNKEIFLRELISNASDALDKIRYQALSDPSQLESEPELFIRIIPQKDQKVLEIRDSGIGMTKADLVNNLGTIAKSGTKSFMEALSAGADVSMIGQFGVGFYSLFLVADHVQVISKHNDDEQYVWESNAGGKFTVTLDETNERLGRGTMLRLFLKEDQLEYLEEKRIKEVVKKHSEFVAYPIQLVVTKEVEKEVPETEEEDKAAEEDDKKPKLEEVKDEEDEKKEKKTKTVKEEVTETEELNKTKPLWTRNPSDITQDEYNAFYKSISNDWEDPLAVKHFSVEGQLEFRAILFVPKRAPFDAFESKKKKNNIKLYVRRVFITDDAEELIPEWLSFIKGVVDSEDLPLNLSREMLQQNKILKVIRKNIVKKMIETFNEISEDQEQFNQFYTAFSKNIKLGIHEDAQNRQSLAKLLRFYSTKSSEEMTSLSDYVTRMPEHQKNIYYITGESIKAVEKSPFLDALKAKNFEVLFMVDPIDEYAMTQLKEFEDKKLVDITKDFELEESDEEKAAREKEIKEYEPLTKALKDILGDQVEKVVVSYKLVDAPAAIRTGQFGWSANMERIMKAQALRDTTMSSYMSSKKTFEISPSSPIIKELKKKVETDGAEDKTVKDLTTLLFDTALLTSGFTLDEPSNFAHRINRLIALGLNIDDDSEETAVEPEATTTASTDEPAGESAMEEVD

Estrogen receptor = target: T6, Estrogen receptor (Homo sapiens, UniProt P03372); assay: ERα coactivator recruitment enhancers – biochemical, TR-FRET, ERα LBD, dose response (AID 737)
T6 sequence (P03372 whole entry): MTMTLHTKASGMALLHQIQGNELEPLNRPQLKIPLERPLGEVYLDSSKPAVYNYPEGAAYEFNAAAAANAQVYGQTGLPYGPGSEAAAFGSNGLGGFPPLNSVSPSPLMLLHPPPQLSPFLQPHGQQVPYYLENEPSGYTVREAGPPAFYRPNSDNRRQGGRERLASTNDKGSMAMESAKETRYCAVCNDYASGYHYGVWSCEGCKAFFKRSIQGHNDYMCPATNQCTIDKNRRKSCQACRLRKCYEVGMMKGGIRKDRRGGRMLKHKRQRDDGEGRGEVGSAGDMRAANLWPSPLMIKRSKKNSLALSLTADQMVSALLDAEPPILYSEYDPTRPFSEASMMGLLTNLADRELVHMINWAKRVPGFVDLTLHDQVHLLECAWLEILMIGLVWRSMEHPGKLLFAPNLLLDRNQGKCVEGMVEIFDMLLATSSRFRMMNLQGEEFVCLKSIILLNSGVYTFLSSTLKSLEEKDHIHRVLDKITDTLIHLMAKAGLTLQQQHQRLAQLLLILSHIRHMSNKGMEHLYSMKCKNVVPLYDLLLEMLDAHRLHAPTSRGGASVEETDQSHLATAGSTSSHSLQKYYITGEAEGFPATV

[22] = target: ADP-ribosylation factor GTPase-activating protein 1 (Rattus norvegicus, UniProt Q62848); assay: Fluorescence polarization-based biochemical high throughput dose response screening assay to identify inhibitors of ADP-ribosylation factor GTPase activating protein 1 (ARFGAP1).; type: functional
Sequence of ADP-ribosylation factor GTPase-activating protein 1 (Q62848 whole entry): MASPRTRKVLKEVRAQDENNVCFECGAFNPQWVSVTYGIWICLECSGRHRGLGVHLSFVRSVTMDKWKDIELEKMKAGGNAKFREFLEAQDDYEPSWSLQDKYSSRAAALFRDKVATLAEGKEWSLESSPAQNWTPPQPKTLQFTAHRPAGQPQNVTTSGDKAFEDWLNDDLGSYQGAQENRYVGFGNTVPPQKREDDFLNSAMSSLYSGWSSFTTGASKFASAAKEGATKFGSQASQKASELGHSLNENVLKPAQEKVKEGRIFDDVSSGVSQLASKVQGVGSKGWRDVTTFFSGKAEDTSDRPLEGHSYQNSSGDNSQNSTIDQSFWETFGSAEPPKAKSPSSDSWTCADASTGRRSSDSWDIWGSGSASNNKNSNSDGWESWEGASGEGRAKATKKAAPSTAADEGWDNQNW
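Wherever CC50 is given: cells exposed to compound for 16 hours before readout.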

## CCN(CCO)c1ccc(N=Nc2cc(C)[nH]n2)cc1
[1]
  EC50: 5.43 µM (active)
[2]
  EC50: 4.08 µM (active)
[3]
  EC50: 4.94 µM (active)
[4]
  EC50: > 100 µM (active)
[5]
  AC50: 3.6 µM (active)
[6]
  IC50: 53 µM (active)
[7]
  IC50: > 100 µM (inactive)
Prothrombin
  IC50: 61.2 µM (active)

## CC(C)c1nnc(NC(=O)CCS(=O)(=O)c2nc(-c3cccs3)cc(C(F)(F)F)n2)s1
[8]
  IC50: 1.1 µM (active)
[9]
  IC50: 13.5 µM (not active)
[10]
  AC50: > 120 µM (inactive)
Protein RecA
  EC50: 30.4 µM (inconclusive)
[11]
  EC50: 33.7 µM (inactive)
[12]
  AC50: 3.02 µM (active)
[13]
  AC50: 6.01 µM (active)

## COc1ccc(C(c2c(O)ccc3ccccc23)N2CCOCC2)c(OC)c1 (stereo unspecified)
[14]
  EC50: 11.6 µM (active)
HeLa
  CC50: 44.3 µM (not active)
[15]
  EC50: 1.82 µM (active)
[16]
  EC50: 4.07 µM (active)
[17]
  EC50: 3.89 µM (active)
[18]
  EC50: > 180 µM (inactive)
[19]
  IC50: 1.62 µM (active)
[20]
  EC50: 12.5 µM (active)
[21]
  EC50: > 160 µM (inactive)

## COc1ccc(CCn2c(SCC(=O)Nc3cc(C)on3)nc3ccsc3c2=O)cc1OC
Estrogen receptor
  EC50: 12.8 µM (active)
[22]
  IC50: 44 µM (inactive)
